Measurements from PubChem BioAssay AID1259407 (Chemical Carcinogenesis Research Information System (CCRIS), 2018).
Calls of active or inactive are those of the source. How the calls were made is not given here.

Tested on: CCRIS mutagenicity, Ames/micronucleus/aberration tests
Assay: CCRIS mutagenicity studies
[1] = Test System: AMES SALMONELLA TYPHIMURIUM, Strain/Indicator: TA98, Metabolic Activation: RAT, LIVER, S-9, AROCLOR 1254, Method: STANDARD PLATE

C1CCC2CCCCC2C1 (stereo not given) was tested, and the mutagenic call (End Point: IN VIVO MICRONUCLEUS, Test System: PERIPHERAL BLOOD LYMPHOCYTES, Species: MOUSE, Strain/Sex: B6C3F1/FEMALE, Route: INHALATION) was “inactive; negative”, the mutagenic call (End Point: IN VIVO MICRONUCLEUS, Test System: PERIPHERAL BLOOD LYMPHOCYTES, Species: MOUSE, Strain/Sex: B6C3F1/MALE, Route: INHALATION) was “active; positive” and the mutagenic call (Test System: AMES SALMONELLA TYPHIMURIUM, Strain/Indicator: TA97, Metabolic Activation: HAMSTER, LIVER, S-9 (10%), AROCLOR 1254, Method: PREINCUBATION) was “inactive; negative”. For the same molecule, the mutagenic call (Test System: AMES SALMONELLA TYPHIMURIUM, Strain/Indicator: TA97, Metabolic Activation: HAMSTER, LIVER, S-9 (30%), AROCLOR 1254, Method: PREINCUBATION) was “inactive; negative”, the mutagenic call (Test System: AMES SALMONELLA TYPHIMURIUM, Strain/Indicator: TA97, Metabolic Activation: NONE, Method: PREINCUBATION) was “inactive; negative” and the mutagenic call (Test System: AMES SALMONELLA TYPHIMURIUM, Strain/Indicator: TA97, Metabolic Activation: RAT, LIVER, S-9 (10%), AROCLOR 1254, Method: PREINCUBATION) was “inactive; negative”. The mutagenic call (Test System: AMES SALMONELLA TYPHIMURIUM, Strain/Indicator: TA97, Metabolic Activation: RAT, LIVER, S-9 (30%), AROCLOR 1254, Method: PREINCUBATION) was “inactive; negative”, the mutagenic call (Test System: AMES SALMONELLA TYPHIMURIUM, Strain/Indicator: TA98, Metabolic Activation: HAMSTER, LIVER, S-9 (10%), AROCLOR 1254, Method: PREINCUBATION) was “inactive; negative” and the mutagenic call (Test System: AMES SALMONELLA TYPHIMURIUM, Strain/Indicator: TA98, Metabolic Activation: HAMSTER, LIVER, S-9 (30%), AROCLOR 1254, Method: PREINCUBATION) was “inactive; negative”. The mutagenic call (Test System: AMES SALMONELLA TYPHIMURIUM, Strain/Indicator: TA98, Metabolic Activation: HAMSTER, LIVER, S-9, AROCLOR 1254, Method: STANDARD PLATE) was “inactive; negative”, the mutagenic call (Test System: AMES SALMONELLA TYPHIMURIUM, Strain/Indicator: TA98, Metabolic Activation: NONE, Method: PREINCUBATION) was “inactive; negative” and the mutagenic call (Test System: AMES SALMONELLA TYPHIMURIUM, Strain/Indicator: TA98, Metabolic Activation: NONE, Method: STANDARD PLATE) was “inactive; negative”. The mutagenic call (Test System: AMES SALMONELLA TYPHIMURIUM, Strain/Indicator: TA98, Metabolic Activation: RAT, LIVER, S-9 (10%), AROCLOR 1254, Method: PREINCUBATION) was “inactive; negative”, the mutagenic call (Test System: AMES SALMONELLA TYPHIMURIUM, Strain/Indicator: TA98, Metabolic Activation: RAT, LIVER, S-9 (30%), AROCLOR 1254, Method: PREINCUBATION) was “inactive; negative” and the mutagenic call [1] was “inactive; negative”. The mutagenic call (Test System: AMES SALMONELLA TYPHIMURIUM, Strain/Indicator: TA100, Metabolic Activation: HAMSTER, LIVER, S-9 (10%), AROCLOR 1254, Method: PREINCUBATION) was “inactive; negative”, the mutagenic call (Test System: AMES SALMONELLA TYPHIMURIUM, Strain/Indicator: TA100, Metabolic Activation: HAMSTER, LIVER, S-9 (30%), AROCLOR 1254, Method: PREINCUBATION) was “inactive; negative” and the mutagenic call (Test System: AMES SALMONELLA TYPHIMURIUM, Strain/Indicator: TA100, Metabolic Activation: HAMSTER, LIVER, S-9, AROCLOR 1254, Method: STANDARD PLATE) was “inactive; negative”. The mutagenic call (Test System: AMES SALMONELLA TYPHIMURIUM, Strain/Indicator: TA100, Metabolic Activation: NONE, Method: PREINCUBATION) was “inactive; negative; precipitation occurred at 333 ug/plate”, the mutagenic call (Test System: AMES SALMONELLA TYPHIMURIUM, Strain/Indicator: TA100, Metabolic Activation: NONE, Method: STANDARD PLATE) was “inactive; negative” and the mutagenic call (Test System: AMES SALMONELLA TYPHIMURIUM, Strain/Indicator: TA100, Metabolic Activation: RAT, LIVER, S-9 (10%), AROCLOR 1254, Method: PREINCUBATION) was “inactive; negative”. For the same molecule, the mutagenic call (Test System: AMES SALMONELLA TYPHIMURIUM, Strain/Indicator: TA100, Metabolic Activation: RAT, LIVER, S-9 (30%), AROCLOR 1254, Method: PREINCUBATION) was “inactive; negative”, the mutagenic call (Test System: AMES SALMONELLA TYPHIMURIUM, Strain/Indicator: TA100, Metabolic Activation: RAT, LIVER, S-9, AROCLOR 1254, Method: STANDARD PLATE) was “inactive; negative” and the mutagenic call (Test System: AMES SALMONELLA TYPHIMURIUM, Strain/Indicator: TA1535, Metabolic Activation: HAMSTER, LIVER, S-9 (10%), AROCLOR 1254, Method: PREINCUBATION) was “inactive; negative”. The mutagenic call (Test System: AMES SALMONELLA TYPHIMURIUM, Strain/Indicator: TA1535, Metabolic Activation: HAMSTER, LIVER, S-9 (30%), AROCLOR 1254, Method: PREINCUBATION) was “inactive; negative”, the mutagenic call (Test System: AMES SALMONELLA TYPHIMURIUM, Strain/Indicator: TA1535, Metabolic Activation: HAMSTER, LIVER, S-9, AROCLOR 1254, Method: STANDARD PLATE) was “inactive; negative” and the mutagenic call (Test System: AMES SALMONELLA TYPHIMURIUM, Strain/Indicator: TA1535, Metabolic Activation: NONE, Method: PREINCUBATION) was “inactive; negative”. For the same molecule, the mutagenic call (Test System: AMES SALMONELLA TYPHIMURIUM, Strain/Indicator: TA1535, Metabolic Activation: NONE, Method: STANDARD PLATE) was “inactive; negative”, the mutagenic call (Test System: AMES SALMONELLA TYPHIMURIUM, Strain/Indicator: TA1535, Metabolic Activation: RAT, LIVER, S-9 (10%), AROCLOR 1254, Method: PREINCUBATION) was “inactive; negative” and the mutagenic call (Test System: AMES SALMONELLA TYPHIMURIUM, Strain/Indicator: TA1535, Metabolic Activation: RAT, LIVER, S-9 (30%), AROCLOR 1254, Method: PREINCUBATION) was “inactive; negative”. For the same molecule, the mutagenic call (Test System: AMES SALMONELLA TYPHIMURIUM, Strain/Indicator: TA1535, Metabolic Activation: RAT, LIVER, S-9, AROCLOR 1254, Method: STANDARD PLATE) was “inactive; negative”, the mutagenic call (Test System: AMES SALMONELLA TYPHIMURIUM, Strain/Indicator: TA1537, Metabolic Activation: HAMSTER, LIVER, S-9, AROCLOR 1254, Method: STANDARD PLATE) was “inactive; negative” and the mutagenic call (Test System: AMES SALMONELLA TYPHIMURIUM, Strain/Indicator: TA1537, Metabolic Activation: NONE, Method: STANDARD PLATE) was “inactive; negative”. For the same molecule, the mutagenic call (Test System: AMES SALMONELLA TYPHIMURIUM, Strain/Indicator: TA1537, Metabolic Activation: RAT, LIVER, S-9, AROCLOR 1254, Method: STANDARD PLATE) was “inactive; negative”, the mutagenic call (Test System: AMES SALMONELLA TYPHIMURIUM, Strain/Indicator: TA1538, Metabolic Activation: HAMSTER, LIVER, S-9, AROCLOR 1254, Method: STANDARD PLATE) was “inactive; negative” and the mutagenic call (Test System: AMES SALMONELLA TYPHIMURIUM, Strain/Indicator: TA1538, Metabolic Activation: NONE, Method: STANDARD PLATE) was “inactive; negative”. The mutagenic call (Test System: AMES SALMONELLA TYPHIMURIUM, Strain/Indicator: TA1538, Metabolic Activation: RAT, LIVER, S-9, AROCLOR 1254, Method: STANDARD PLATE) was “inactive; negative”, the mutagenic call (Test System: MOUSE LYMPHOMA, Strain/Indicator: L5178Y (TK+/TK-), Metabolic Activation: NONE, Method: SUSPENSION/PLATE) was “inactive; negative. reevaluation of results: negative” and the mutagenic call (Test System: MOUSE LYMPHOMA, Strain/Indicator: L5178Y (TK+/TK-), Metabolic Activation: RAT, LIVER, S-9, AROCLOR 1254, Method: SUSPENSION/PLATE) was “inactive; negative. reevaluation of results: negative”.
ClNc1ccc2c(c1)Cc1ccccc1-2 was tested, and the mutagenic call [1] was “active; positive”.
